Experiment [1] can be described thus: Catalytic NO generation by ditelluride compounds via chemiluminescence NO analyzer (NOA). The class given is biochemical. The procedure: FIG. 19A also depicts other measurements of catalytic NO generation by ditelluride compounds. […] The rate of NO generation slowly decreases with time to reach a steady-state that lasts until all of the GSNO is consumed.

The nature of experiment [2]: NO generation by diorgano ditelluride from GSNO and GSH monitored by NOA. The class given is biochemical. To be noted: GSNO and GSH in PBS pH 7.4, EDTA, ambient temperature; FIG. 13.

On to `O=C(O)c1ccc([Te][Te]c2ccc(C(=O)O)s2)s1` [DTDTCA 2, 5,5′-ditelluro-2,2′-dithiophenecarboxylic acid], for which the “NO signal upon adding catalytic amounts” value in experiment [1] (2.5 μM catalyst, GSNO 25 μM, GSH 100 μM in PBS buffer, FIG. 19A) was “relatively large signal appears quickly”. In experiment [1] (absence of RSH, FIG. 19B), the “RSNO decomposition to NO without RSH” value is “decomposes RSNO to NO even in the absence of RSH”.

Consider `O=C(O)CCCCC[Te][Te]CCCCCC(=O)O` [compound 2], for which the “NO generated relative to amount of catalyst used” value in experiment [2] is reported as “much more NO than the amount of diorgano ditelluride”.

(Values after patent US20090287072A1, “POLYMER COMPOSITIONS, COATINGS AND DEVICES, AND METHODS OF MAKING AND USING THE SAME” (THE REGENTS OF THE UNIVERSITY OF MICHIGAN, priority 2005, published 2009).)
